Measurements from the NIST ThermoML archive (doi:10.1016/j.fluid.2009.04.021).

Conditions: 101.33 kPa, Liquid, Buoyancy - hydrostatic balance

CCCCn1cc[n+](C)c1.F[B-](F)(F)F [1-butyl-3-methylimidazolium tetrafluoroborate]
Conditions | mass density [kg/m3]
281.45 K | 1213.36
283.01 K | 1212.07
288.41 K | 1207.87
288.49 K | 1207.91
293.2 K | 1204.14
293.49 K | 1204.59
298.19 K | 1200.74
298.29 K | 1200.69
303.04 K | 1197.96
303.25 K | 1196.93
308.02 K | 1192.73
308.14 K | 1193.22
312.86 K | 1190.14
313.44 K | 1190.35
318.17 K | 1187.07
318.18 K | 1185.49
323.04 K | 1183.15
323.06 K | 1184.13
327.58 K | 1180.59
328.06 K | 1179.55
332.87 K | 1175.86
333.24 K | 1177.1
337.9 K | 1173.42
337.97 K | 1172.99
342.78 K | 1169.84
343.45 K | 1170.2
347.5 K | 1166.66
348.11 K | 1166.78
350.81 K | 1165.3
352.74 K | 1163.68

CCn1cc[n+](C)c1.F[B-](F)(F)F [1-ethyl-3-methylimidazolium tetrafluoroborate]
Conditions | mass density [kg/m3]
293.41 K | 1287.17
298.14 K | 1283.2
303.08 K | 1279.88
307.94 K | 1275.06
313 K | 1271.88
318.7 K | 1267.21
322.5 K | 1265.05
328.4 K | 1260.59
332.78 K | 1257.46
338.22 K | 1254.07
343.05 K | 1251.15
347.97 K | 1247.07
353.07 K | 1243.6

CCCCCCn1cc[n+](C)c1.F[B-](F)(F)F [1-hexyl-3-methylimidazolium tetrafluoroborate]
Conditions | mass density [kg/m3]
283.61 K | 1166.71
288.57 K | 1163.12
293.48 K | 1159.99
298.22 K | 1156.57
303.11 K | 1152.91
308.16 K | 1149.26
313.25 K | 1146.23
318.33 K | 1142.64
323 K | 1139.57
328.63 K | 1135.72
333.69 K | 1132.53
338.15 K | 1129.41
343.04 K | 1126.12
348.26 K | 1122.71
352.72 K | 1119.68
